Reference: US10752624B2, “Kinase inhibitors” (Origenis GmbH, priority 2012, dated 2020)

Columns and labels:
LRRK2 = LRRK2 (Homo sapiens, UniProt Q5S007); assay: LRRK2-LRRK2 G2019S-Assay (LanthaScreen Eu Kinase Binding Assay); conditions: 5 nM LRRK2, 10 nM tracer 236, 2 nM EU-Anti-GST antibody, 1 h at RT; read-out: LRRK2 Activities: IC50
In short: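 In a TR-FRET tracer displacement assay, LRRK2 or its mutants at 5 nM were mixed with 2 nM Eu-anti-GST antibody and 10 nM tracer 236 in kinase buffer A for 1 h at RT. The 665/615 nm emission ratio was plotted against inhibitor concentration, and IC50 came from a variable-slope sigmoidal fit.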

SYK kinase = target: T1, SYK kinase (Homo sapiens, UniProt P43405); assay: SYK Assay (OMNIA Kinase Assay, SOX peptide fluorescence); format: biochemical; conditions: 1 mM ATP, 10 μM Omnia Peptide Substrate Tyr 7, 30° C., readings for 30 minutes; read-out: SYK Activities: IC50
T1 construct: purchased Invitrogen, Carlsbad
Method: In the assay OMNIA® KINASE ASSAY by Invitrogen Corporation (Carlsbad) the effect of invention of a compound on the phosphorylation is determined by measurement of fluorescence intensity of a chelation-enhanced fluorophore called SOX. Upon phosphorylation of the peptide by the kinase of interest, Mg2+ is chelated to form a bridge between the SOX moiety and the phosphate group that is transferred to the specific tyrosine on the peptide. The fluorescence intensity is directly proportional to the amount of peptide phosphorylation.
To the wells of an 384 well small volume plate (Greiner, Frickenhausen) are added (i) the compound under test in 5% DMSO/distilled water (2 μl), (ii) 16 μl of the master mix containing ATP, DTT, Kinase Reaction Buffer, Omina Peptide Substrate Tyr 7 resulting in a final concentration of 1 mM ATP, 0.2 mM DTT and 10 μM Peptide Substrate.
The Master Mix and the assay plate was incubated to reaction temperature before the measurement (30° C.). The reaction was started with addition of (iii) 2 μl 4 μg/ml SYK kinase (Invitrogen, Carlsbad). During measurement fluorescence intensity readings were collected using a TECAN M1000 at a wavelength of λex 360/λem 485 nm every 30 s for 30 minutes. The reaction velocity was plotted versus the inhibitor concentration to determine the IC50 using XLFit 5.0 (IDBS, Guildford) to fit to a sigmoidal dose response curve.

Sequence of LRRK2 (Q5S007 970-2527 limits assumed): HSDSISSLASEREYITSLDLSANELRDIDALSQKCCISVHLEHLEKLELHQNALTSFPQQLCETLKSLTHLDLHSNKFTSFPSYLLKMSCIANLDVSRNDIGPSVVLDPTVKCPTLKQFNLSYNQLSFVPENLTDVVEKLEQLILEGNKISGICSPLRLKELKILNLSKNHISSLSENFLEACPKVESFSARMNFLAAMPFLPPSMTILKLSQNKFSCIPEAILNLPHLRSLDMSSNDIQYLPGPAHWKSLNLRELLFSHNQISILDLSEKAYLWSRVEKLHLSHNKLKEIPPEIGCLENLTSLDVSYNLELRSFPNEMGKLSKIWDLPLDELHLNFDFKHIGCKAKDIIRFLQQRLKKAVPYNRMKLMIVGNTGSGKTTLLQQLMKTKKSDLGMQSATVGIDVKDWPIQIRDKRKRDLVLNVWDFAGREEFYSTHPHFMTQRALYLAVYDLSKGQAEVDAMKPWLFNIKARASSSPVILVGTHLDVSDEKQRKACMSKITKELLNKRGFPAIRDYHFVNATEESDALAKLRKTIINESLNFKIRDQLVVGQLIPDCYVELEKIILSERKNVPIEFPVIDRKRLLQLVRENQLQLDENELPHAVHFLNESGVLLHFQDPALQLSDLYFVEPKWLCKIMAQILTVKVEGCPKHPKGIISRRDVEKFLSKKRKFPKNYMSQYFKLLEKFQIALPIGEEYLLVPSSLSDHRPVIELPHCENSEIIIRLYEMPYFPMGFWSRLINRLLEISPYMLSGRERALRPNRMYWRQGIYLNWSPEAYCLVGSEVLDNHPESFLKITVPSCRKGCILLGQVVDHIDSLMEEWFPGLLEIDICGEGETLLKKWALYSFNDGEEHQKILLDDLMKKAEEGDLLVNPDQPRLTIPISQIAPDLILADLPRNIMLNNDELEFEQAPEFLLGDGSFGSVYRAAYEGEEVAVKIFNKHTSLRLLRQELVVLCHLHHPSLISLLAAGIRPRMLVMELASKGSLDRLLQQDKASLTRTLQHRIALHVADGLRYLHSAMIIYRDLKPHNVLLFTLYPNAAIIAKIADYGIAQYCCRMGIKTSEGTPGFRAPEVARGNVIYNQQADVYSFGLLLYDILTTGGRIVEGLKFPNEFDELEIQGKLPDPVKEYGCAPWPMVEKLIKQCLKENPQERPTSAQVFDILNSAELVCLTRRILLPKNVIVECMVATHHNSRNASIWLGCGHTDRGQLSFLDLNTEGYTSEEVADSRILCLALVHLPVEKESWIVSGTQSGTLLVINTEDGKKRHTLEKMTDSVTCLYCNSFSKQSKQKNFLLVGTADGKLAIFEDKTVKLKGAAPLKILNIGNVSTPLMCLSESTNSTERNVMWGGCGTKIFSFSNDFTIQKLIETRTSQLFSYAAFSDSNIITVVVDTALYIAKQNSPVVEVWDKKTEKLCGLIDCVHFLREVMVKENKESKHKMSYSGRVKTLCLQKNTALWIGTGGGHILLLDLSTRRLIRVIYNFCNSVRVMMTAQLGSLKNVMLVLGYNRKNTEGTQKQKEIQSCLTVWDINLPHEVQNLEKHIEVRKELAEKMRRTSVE

| Structure (SMILES) | IC50 (LRRK2) | IC50 (SYK kinase) |
| --- | --- | --- |
| CC(C)(C)n1cc(Nc2nc3ccc(S(C)(=O)=O)cc3c3cn[nH]c23)cn1 [Example 195, N-(1-(tert-butyl)-1H-pyrazol-4-yl)-8-(methylsulfonyl)-3H-pyrazolo[3,4-c]quinolin-4-amine] | < 10 nM | 10 to 100 nM |
| COc1cccc2nc(Nc3cnn(C4CCN(C(C)=O)CC4)c3)c3[nH]ncc3c12 [Example 117, 1-(4-(4-((9-methoxy-3H-pyrazolo[3,4-c]quinolin-4-yl)amino)-1H-pyrazol-1-yl)piperidin-1-yl)ethan-1-one] |  | 100 to 1000 nM |
| COCCCn1cc(Nc2nc3cc(S(C)(=O)=O)ccc3c3cn[nH]c23)cn1 [Example 190, N-(1-(3-methoxypropyl)-1H-pyrazol-4-yl)-7-(methylsulfonyl)-3H-pyrazolo[3,4-c]quinolin-4-amine] | 10 to 100 nM | 10 to 100 nM |
| CC(C)n1cc(Nc2nc3ccc(S(C)(=O)=O)cc3c3cn[nH]c23)cn1 [Example 180, N-(1-isopropyl-1H-pyrazol-4-yl)-8-(methylsulfonyl)-3H-pyrazolo[3,4-c]quinolin-4-amine] | < 10 nM | < 10 nM |
| CC(C)(C)N1CCN(c2ccc(Nc3nc4ccc(S(C)(=O)=O)cc4c4cn[nH]c34)cc2)CC1 [Example 80, N-(4-(4-(tert-butyl)piperazin-1-yl)phenyl)-8-(methylsulfonyl)-3H-pyrazolo[3,4-c]quinolin-4-amine] | 10 to 100 nM | 10 to 100 nM |
| COCCn1cc(Nc2nc3cccc(OC)c3c3c[nH]nc23)cn1 [Example 116, 9-methoxy-N-(1-(2-methoxyethyl)-1H-pyrazol-4-yl)-2H-pyrazolo[3,4-c]quinolin-4-amine] |  | 100 to 1000 nM |
| COc1cccc2nc(Nc3ccc(N4CCC(N5CCN(C)CC5)CC4)cc3)c3[nH]ncc3c12 [Example 21, 9-methoxy-N-(4-(4-(4-methylpiperazin-1-yl)piperidin-1-yl)phenyl)-3H-pyrazolo[3,4-c]quinolin-4-amine] | 10 to 100 nM | 100 to 1000 nM |
| CN1CCC(n2cc(Nc3nc4ccc(S(C)(=O)=O)cc4c4cn[nH]c34)cn2)CC1 [Example 114, N-(1-(1-methylpiperidin-4-yl)-1H-pyrazol-4-yl)-8-(methylsulfonyl)-3H-pyrazolo[3,4-c]quinolin-4-amine] |  | < 10 nM |
| O=C1CCc2ccc(Nc3nc4c(F)cccc4c4cn[nH]c34)cc2N1 [Example 54, 7-((6-fluoro-3H-pyrazolo[3,4-c]quinolin-4-yl)amino)-3,4-dihydroquinolin-2(1H)-one] |  | 100 to 1000 nM |
| CC(=O)N1CCC(n2cc(Nc3nc4ccc(S(C)(=O)=O)cc4c4cn[nH]c34)cn2)CC1 [Example 115, 1-(4-(4-((8-(methylsulfonyl)-3H-pyrazolo[3,4-c]quinolin-4-yl)amino)-1H-pyrazol-1-yl)piperidin-1-yl)ethan-1-one] |  | < 10 nM |
| COc1ccc2nc(Nc3cnn(C4CCN(C(C)=O)CC4)c3)c3n[nH]cc3c2c1 [Example 152, 1-(4-(4-((8-methoxy-2H-pyrazolo[3,4-c]quinolin-4-yl)amino)-1H-pyrazol-1-yl)piperidin-1-yl)ethan-1-one] |  | 10 to 100 nM |
| COc1ccc2nc(Nc3cnn(C4CCN(C)CC4)c3)c3n[nH]cc3c2c1 [Example 151, 8-methoxy-N-(1-(1-methylpiperidin-4-yl)-1H-pyrazol-4-yl)-2H-pyrazolo[3,4-c]quinolin-4-amine] |  | 10 to 100 nM |
| COc1cccc2nc(Nc3cnn(C4CCOCC4)c3)c3[nH]ncc3c12 [Example 102, 9-methoxy-N-(1-(tetrahydro-2H-pyran-4-yl)-1H-pyrazol-4-yl)-3H-pyrazolo[3,4-c]quinolin-4-amine] |  | 100 to 1000 nM |
| COCCn1cc(Nc2nc3ccc(S(C)(=O)=O)cc3c3cn[nH]c23)cn1 [Example 153, N-(1-(2-methoxyethyl)-H-pyrazol-4-yl)-8-(methylsulfonyl)-3H-pyrazolo[3,4-c]quinolin-4-amine] |  | 10 to 100 nM |
| COc1ccc(Nc2nc3ccc(SC)cc3c3cn[nH]c23)cc1OC [Example 45, N-(3,4-dimethoxyphenyl)-8-(methylthio)-3H-pyrazolo[3,4-c]quinolin-4-amine] | 100 to 1000 nM |  |
| COc1cccc2nc(Nc3ccc(-c4ncco4)cc3)c3[nH]ncc3c12 [Example 58, 9-methoxy-N-(4-(oxazol-2-yl)phenyl)-3H-pyrazolo[3,4-c]quinolin-4-amine] | 100 to 1000 nM |  |
| COc1cccc2nc(Nc3ccc(N4CCCC4=O)cc3)c3[nH]ncc3c12 [Example 68, 1-(4-((9-methoxy-3H-pyrazolo[3,4-c]quinolin-4-yl)amino)phenyl)pyrrolidin-2-one] | 10 to 100 nM |  |
| COCCn1cc(Nc2nc3ccc(S(C)(=O)=O)cc3c3cn[nH]c23)c(C)n1 [Example 209, N-(1-(2-methoxyethyl)-3-methyl-1H-pyrazol-4-yl)-8-(methylsulfonyl)-3H-pyrazolo[3,4-c]quinolin-4-amine] | 10 to 100 nM |  |
| CS(=O)(=O)c1ccc2c(c1)nc(Nc1cnn(C3CCOCC3)c1)c1[nH]ncc12 [Example 169, 7-(methylsulfonyl)-N-(1-(tetrahydro-2H-pyran-4-yl)-1H-pyrazol-4-yl)-3H-pyrazolo[3,4-c]quinolin-4-amine] | 10 to 100 nM |  |

Second part, the compound after the results:

| IC50 (LRRK2) | IC50 (SYK kinase) | Structure (SMILES) |
| --- | --- | --- |
| 10 to 100 nM | 100 to 1000 nM | CN1C(=O)COc2ccc(Nc3nc4ccc(S(C)(=O)=O)cc4c4c[nH]nc34)cc21 [Example 328, 4-methyl-6-((8-(methylsulfonyl)-2H-pyrazolo[3,4-c]quinolin-4-yl)amino)-2H-benzo[b][1,4]oxazin-3(4H)-one] |
| 10 to 100 nM | 100 to 1000 nM | COc1ccc2nc(Nc3cnn(CC(=O)N(C)C)c3)c3n[nH]cc3c2c1 [Example 311, 2-(4-((8-methoxy-2H-pyrazolo[3,4-c]quinolin-4-yl)amino)-1H-pyrazol-1-yl)-N,N-dimethylacetamide] |
|  | 100 to 1000 nM | COc1cc(OC)c2nc(Nc3cnn(C(C)C)c3)c3[nH]ncc3c2c1 [Example 294, N-(1-isopropyl-1H-pyrazol-4-yl)-6,8-dimethoxy-3H-pyrazolo[3,4-c]quinolin-4-amine] |
| 10 to 100 nM | 100 to 1000 nM | COCCn1ncc(Nc2nc3ccc(S(C)(=O)=O)cc3c3cn[nH]c23)c1C#N [Example 249, 1-(2-methoxyethyl)-4-((8-(methylsulfonyl)-3H-pyrazolo[3,4-c]quinolin-4-yl)amino)-1H-pyrazole-5-carbonitrile] |
| 10 to 100 nM | 100 to 1000 nM | COCCCn1ncc(Nc2nc3ccc(S(C)(=O)=O)cc3c3cn[nH]c23)c1OC [Example 232, N-(5-methoxy-1-(3-methoxypropyl)-1H-pyrazol-4-yl)-8-(methylsulfonyl)-3H-pyrazolo[3,4-c]quinolin-4-amine] |
|  | 100 to 1000 nM | Cc1c(Nc2nc3ccc(S(C)(=O)=O)cc3c3cn[nH]c23)cnn1C(C)C [Example 218, N-(1-isopropyl-5-methyl-1H-pyrazol-4-yl)-8-(methylsulfonyl)-3H-pyrazolo[3,4-c]quinolin-4-amine] |
|  | 10 to 100 nM | Brc1cccc2c1nc(Nc1cnn(C3CCOCC3)c1)c1[nH]ncc12 [Example 355, 6-bromo-N-(1-(tetrahydro-2H-pyran-4-yl)-1H-pyrazol-4-yl)-3H-pyrazolo[3,4-c]quinolin-4-amine] |
|  | 10 to 100 nM | CS(=O)(=O)c1ccc2nc(Nc3ccc(N4CCOCC4)c(C#N)c3)c3n[nH]cc3c2c1 [Example 354, 5-((8-(methylsulfonyl)-2H-pyrazolo[3,4-c]quinolin-4-yl)amino)-2-morpholinobenzonitrile] |
|  | 100 to 1000 nM | COCCn1cc(Nc2nc3ccc(S(C)(=O)=O)cc3c3cn[nH]c23)c(C#N)n1 [Example 248, 1-(2-methoxyethyl)-4-((8-(methylsulfonyl)-3H-pyrazolo[3,4-c]quinolin-4-yl)amino)-1H-pyrazole-3-carbonitrile] |
|  | 100 to 1000 nM | CS(=O)(=O)c1ccc2nc(Nc3cnn(-c4ccccn4)c3)c3n[nH]cc3c2c1 [Example 341, 8-(methylsulfonyl)-N-(1-(pyridin-2-yl)-1H-pyrazol-4-yl)-2H-pyrazolo[3,4-c]quinolin-4-amine] |
|  | 100 to 1000 nM | COc1ccc2nc(Nc3cnn(CCF)c3)c3[nH]ncc3c2c1 [Example 291, N-(1-(2-fluoroethyl)-1H-pyrazol-4-yl)-8-methoxy-3H-pyrazolo[3,4-c]quinolin-4-amine] |
|  | 10 to 100 nM | COc1cc(OC)c2nc(Nc3cnn(C4CCN(C(C)(C)C)CC4)c3)c3[nH]ncc3c2c1 [Example 295, N-(1-(1-(tert-butyl)piperidin-4-yl)-1H-pyrazol-4-yl)-6,8-dimethoxy-3H-pyrazolo[3,4-c]quinolin-4-amine] |
| 10 to 100 nM |  | Cc1nn(C(C)C)cc1Nc1nc2ccc(S(C)(=O)=O)cc2c2cn[nH]c12 [Example 217, N-(1-isopropyl-3-methyl-1H-pyrazol-4-yl)-8-(methylsulfonyl)-3H-pyrazolo[3,4-c]quinolin-4-amine] |
